These results are taken from patent USRE49825E1, “Piperidinyl nociceptin receptor compounds” (Astraea Therapeutics, LLC, priority 2015, dated 2024).

One assay addresses kappa opioid receptor (Homo sapiens, UniProt P41145). The experiment in a line: Radioligand binding assay, [3H]U69593, membranes of CHO cells transfected with human kappa opioid receptor. As to conditions: CHO cell membranes, read-out: Receptor Binding Ki (nM) κ.
For a further assay, the target named is mu opioid receptor (Homo sapiens, UniProt P35372). Briefly: Radioligand binding assay, [3H]DAMGO, membranes of CHO cells transfected with human mu opioid receptor. As to conditions: CHO cell membranes, read-out: Receptor Binding Ki (nM) μ.
mu opioid receptor, sequence (P35372 whole entry): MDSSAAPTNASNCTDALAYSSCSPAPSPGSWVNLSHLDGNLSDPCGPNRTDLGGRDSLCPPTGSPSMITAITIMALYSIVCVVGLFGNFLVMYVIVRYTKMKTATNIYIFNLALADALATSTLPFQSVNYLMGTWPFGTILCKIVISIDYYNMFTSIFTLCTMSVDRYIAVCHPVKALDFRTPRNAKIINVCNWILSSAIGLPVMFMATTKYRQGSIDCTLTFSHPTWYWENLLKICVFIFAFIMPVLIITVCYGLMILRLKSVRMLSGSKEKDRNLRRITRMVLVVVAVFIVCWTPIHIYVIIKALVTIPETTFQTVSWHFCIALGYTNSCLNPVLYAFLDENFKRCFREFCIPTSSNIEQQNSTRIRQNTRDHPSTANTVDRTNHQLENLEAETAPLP

Where two headings read alike, the source gives them in different places.

kappa opioid receptor, sequence (P41145 whole entry): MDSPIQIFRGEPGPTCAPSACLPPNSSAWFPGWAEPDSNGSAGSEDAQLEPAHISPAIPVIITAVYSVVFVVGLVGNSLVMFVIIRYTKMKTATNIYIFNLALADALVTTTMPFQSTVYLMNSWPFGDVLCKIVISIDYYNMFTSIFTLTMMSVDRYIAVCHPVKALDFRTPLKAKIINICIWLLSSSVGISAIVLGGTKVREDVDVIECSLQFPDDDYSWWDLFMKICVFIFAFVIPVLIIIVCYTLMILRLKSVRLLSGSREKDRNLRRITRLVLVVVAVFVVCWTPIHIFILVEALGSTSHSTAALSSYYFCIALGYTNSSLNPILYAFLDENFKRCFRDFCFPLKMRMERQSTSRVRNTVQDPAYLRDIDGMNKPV

Consider `CC(C)[C@H]1CC[C@@H](N2CCC(n3ccc4ccccc43)CC2)CC1` [Compound 61, syn-1-(1-(4-isopropylcyclohexyl)piperidin-4-yl)-1H-indole], for which the inhibition constant (Ki) on kappa opioid receptor (Compounds of Formula (II)) and at mu opioid receptor (Compounds of Formula (II)) was 150 to 5000 nM throughout.

Consider `CC(C)[C@H]1CC[C@@H](N2CCC(n3cc(CN4CC[C@@H](O)C4)c4ccccc43)CC2)CC1` [Compound 66, (R)-1-((1-(1-(cis-4-isopropylcyclohexyl)piperidin-4-yl)-1H-indol-3-yl)methyl)pyrrolin-3-ol], for which the results for the inhibitory constant (Ki) on kappa opioid receptor (Compounds of Formula (II)) and at mu opioid receptor (Compounds of Formula (II)) were over 5000 nM and 150 to 5000 nM, respectively.

Consider `CC(C)[C@H]1CC[C@@H](N2CCC(n3cc(CN4CC(O)C4)c4ccccc43)CC2)CC1` [Compound 67, 1-((1-(1-(cis-4-isopropylcyclohexyl)piperidin-4-yl)-1H-indol-3-yl)methyl)azetidin-3-ol], for which the Ki at kappa opioid receptor (Compounds of Formula (II)) and at mu opioid receptor (Compounds of Formula (II)) was over 5000 nM each time.

Turning to `CC(C)[C@H]1CC[C@@H](N2CCC(n3cc(CN4CCC(O)CC4)c4ccccc43)CC2)CC1` [Compound 68], the Ki on kappa opioid receptor (Compounds of Formula (II)) was 150 to 5000 nM; at mu opioid receptor (Compounds of Formula (II)) it was over 5000 nM.

For `CC(C)[C@H]1CC[C@@H](N2CCC(n3cc(CN4CCC(N)CC4)c4ccccc43)CC2)CC1` [Compound 69, 1-((1-(1-(cis-4-isopropylcyclohexyl)piperidin-4-yl)-1H-indol-3-yl)methyl)piperidin-4-amine], the Ki at kappa opioid receptor (Compounds of Formula (II)) and on mu opioid receptor (Compounds of Formula (II)) was 150 to 5000 nM each time.

`CC(C)[C@H]1CC[C@@H](N2CCC(n3cc(CNCCO)c4ccccc43)CC2)CC1` [Compound 70]: the inhibitory constant (Ki) on kappa opioid receptor (Compounds of Formula (II)) and at mu opioid receptor (Compounds of Formula (II)) was 150 to 5000 nM throughout.

With `CCNCC(=O)NCc1cn(C2CCN([C@H]3CC[C@@H](C(C)C)CC3)CC2)c2ccccc12` [Compound 76], the Ki on kappa opioid receptor (Compounds of Formula (II)) and at mu opioid receptor (Compounds of Formula (II)) was 150 to 5000 nM each time.

On to `CC(C)[C@H]1CC[C@@H](N2CCC(n3cc(CNC(=O)C(N)CCCNC(=N)N)c4ccccc43)CC2)CC1` (stereo partly shown) [Compound 80], for which the inhibition constant (Ki) at kappa opioid receptor (Compounds of Formula (II)) and on mu opioid receptor (Compounds of Formula (II)) was 150 to 5000 nM throughout.

Regarding `CC(C)[C@H]1CC[C@@H](N2CCC(n3cc(CN(C)C)c4ccccc43)CC2)CC1` [Compound 84], the inhibition constant (Ki) at mu opioid receptor (Compounds of Formula (II)) lay in the range of 150 to 5000 nM.

For `CC(C)[C@H]1CC[C@@H](N2CCC(n3cc(CCN)c4ccccc43)CC2)CC1` [Compound 86, 2-(1-(1-(cis-4-isopropylcyclohexyl)piperidin-4-yl)-1H-indol-3-yl)ethan-1-amine], the Ki at kappa opioid receptor (Compounds of Formula (II)) and at mu opioid receptor (Compounds of Formula (II)) was 150 to 5000 nM in each case.

With `CCOC(=O)NCCc1cn(C2CCN([C@H]3CC[C@@H](C(C)C)CC3)CC2)c2ccccc12` [Compound 94], the values for the Ki on kappa opioid receptor (Compounds of Formula (II)) and on mu opioid receptor (Compounds of Formula (II)) were over 5000 nM and 150 to 5000 nM, respectively.

For `CC(C)[C@H]1CC[C@@H](N2CCC(n3cc(CCCNC(N)=S)c4ccccc43)CC2)CC1` [Compound 96], the Ki at kappa opioid receptor (Compounds of Formula (II)) and on mu opioid receptor (Compounds of Formula (II)) was 150 to 5000 nM each time.

`CC(C)[C@H]1CC[C@@H](N2CCC3(CC2)C(=O)N(CC(N)=O)Cc2cc(-c4ccccc4)ccc23)CC1` [Compound 345, 2-(1′-(cis-4-isopropyl-cyclohexyl)-3-oxo-7-phenyl-1H-spiro [isoquinoline-4,4′-piperidin]-2(3H)-yl) acetamide]: the Ki on kappa opioid receptor (Compounds of Formula (IV)) and on mu opioid receptor (Compounds of Formula (IV)) was 150 to 5000 nM throughout.
